Results reported in patent US20250296971A1, “GASTRIC INHIBITORY PEPTIDE RECEPTOR LIGANDS” (priority 2021, published 2025).
*1 amine or outer side, *2 acyl side, *3 side chain or, on linkers, in order; H or OH if unused. Where a SMILES comes first, the peptide text is derived from it. Bridges are numbered along the chain shown (N, C = ends). [ ]: non-standard residue; d: D form. Trp(5-Cl) = N[C@@H](Cc1c[nH]c2ccc(Cl)cc12)C(=O)O; Pyridine(2,6-diCH2) = c1cc(C[*:1])nc(C[*:2])c1; Trp(7-F) = N[C@@H](Cc1c[nH]c2c(F)cccc12)C(=O)O; X22 = O=C([C@H](Cc1cccc(Cl)c1Cl)N[*:1])[*:2]; Pro(4R-NH2) = N[C@H]1CN[C@H](C(=O)O)C1; Hyp = O=C(O)[C@@H]1C[C@@H](O)CN1; Tle = CC(C)(C)[C@H](N)C(=O)O; Thp = NC1(C(=O)O)CCOCC1

Biological target: T1, GIPR (CHO-K1-hGIPR cells) (Homo sapiens, UniProt P48546)
T1 construct: host or cells: CHO-K1
T1 sequence (P48546 22-466): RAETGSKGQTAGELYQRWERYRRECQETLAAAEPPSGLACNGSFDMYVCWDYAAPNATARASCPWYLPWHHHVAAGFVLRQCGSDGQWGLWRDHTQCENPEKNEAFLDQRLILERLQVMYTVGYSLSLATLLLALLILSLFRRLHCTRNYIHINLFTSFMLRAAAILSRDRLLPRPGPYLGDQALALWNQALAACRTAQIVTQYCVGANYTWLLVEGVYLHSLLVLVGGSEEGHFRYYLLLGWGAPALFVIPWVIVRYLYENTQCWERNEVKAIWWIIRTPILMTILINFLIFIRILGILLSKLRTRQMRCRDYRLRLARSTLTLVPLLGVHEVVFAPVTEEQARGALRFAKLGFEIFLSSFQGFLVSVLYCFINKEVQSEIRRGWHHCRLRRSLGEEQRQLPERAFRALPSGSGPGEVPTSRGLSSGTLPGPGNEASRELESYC
Assay: FACS binding assay
Settings: competition with 20 nM GIP-057, 4° C., 1 hour, read-out: pIC50 Category (converted)
How it was run: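 CHO-K1 cells stably expressing human GIPR were detached with Accutase, suspended at 500.000 cells per mL in PBS with 1% FCS, and washed ice-cold. Bound peptide was detected with 1 μg/mL APC-streptavidin for 30 min on ice.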

Row | Structure (SMILES) | IC50
1 | CC[C@H](C)[C@@H]1NC(=O)[C@H](CC(C)C)NC(=O)C2(CCOCC2)NC(=O)[C@@H](NC(=O)[C@@H](CC(C)C)NC(=O)[C@H](CCC(=O)O)NC(=O)[C@@H]2C[C@@H](O)CN2C(=O)[C@H](Cc2c[nH]c3ccc(Cl)cc23)NC(=O)[C@H](Cc2cccc(Cl)c2Cl)NC(=O)[C@H](CC(=O)O)NC(C)=O)CSCc2cccc(n2)CSC[C@@H](C(N)=O)NC1=O [GIP-226, Ac-Asp-Egp-5Clw-Hyp-Glu-leu-[Cys(2Lut)-Thp-Leu-Ile-Cys]-NH2] (Ac-D[X22][Trp(5-Cl)][Hyp]E[dL]C[Thp]LIC-NH2; linker 7-11 via Pyridine(2,6-diCH2)) | < 10 nM
2 | CC[C@H](C)[C@@H]1NC(=O)[C@H](CC(C)C)NC(=O)C2(CCOCC2)NC(=O)[C@@H](NC(=O)[C@@H](CC(C)C)NC(=O)[C@H](CCC(=O)O)NC(=O)[C@@H]2C[C@@H](O)CN2C(=O)[C@H](Cc2c[nH]c3c(F)cccc23)NC(=O)[C@H](Cc2c[nH]c3ccccc23)NC(=O)[C@H](CC(=O)O)NC(C)=O)CSCc2cccc(n2)CSC[C@@H](C(N)=O)NC1=O [GIP-227, Ac-Asp-Trp-7Fw-Hyp-Glu-leu-[Cys(2Lut)-Thp-Leu-Ile-Cys]-NH2] (Ac-DW[Trp(7-F)][Hyp]E[dL]C[Thp]LIC-NH2; linker 7-11 via Pyridine(2,6-diCH2)) | < 10 nM
3 | CC[C@H](C)[C@@H]1NC(=O)[C@H](CC(C)C)NC(=O)[C@H](Cc2ccccc2)NC(=O)[C@@H](NC(=O)[C@@H](CC(C)C)NC(=O)[C@H](CCC(=O)O)NC(=O)[C@@H]2C[C@@H](O)CN2C(=O)[C@H](Cc2c[nH]c3ccc(Cl)cc23)NC(=O)[C@H](Cc2c[nH]c3ccccc23)NC(=O)[C@H](CC(=O)O)NC(C)=O)CSCc2cccc(n2)CSC[C@@H](C(N)=O)NC1=O [GIP-228, Ac-Asp-Trp-5Clw-Hyp-Glu-leu-[Cys(2Lut)-Phe-Leu-Ile-Cys]-NH2] (Ac-DW[Trp(5-Cl)][Hyp]E[dL]CFLIC-NH2; linker 7-11 via Pyridine(2,6-diCH2)) | < 10 nM
4 | CC[C@H](C)[C@@H]1NC(=O)[C@H]([C@@H](C)CC)NC(=O)C2(CCOCC2)NC(=O)[C@@H](NC(=O)[C@@H](CC(C)C)NC(=O)[C@H](CCC(=O)O)NC(=O)[C@@H]2C[C@@H](O)CN2C(=O)[C@H](Cc2c[nH]c3ccc(Cl)cc23)NC(=O)[C@H](Cc2c[nH]c3ccccc23)NC(=O)[C@H](CC(=O)O)NC(C)=O)CSCc2cccc(n2)CSC[C@@H](C(N)=O)NC1=O [GIP-229, Ac-Asp-Trp-5Clw-Hyp-Glu-leu-[Cys(2Lut)-Thp-Ile-Ile-Cys]-NH2] (Ac-DW[Trp(5-Cl)][Hyp]E[dL]C[Thp]IIC-NH2; linker 7-11 via Pyridine(2,6-diCH2)) | < 10 nM
5 | CC[C@H](C)[C@@H]1NC(=O)[C@H](CCCNC(=N)N)NC(=O)C2(CCOCC2)NC(=O)[C@@H](NC(=O)[C@@H](CC(C)C)NC(=O)[C@H](CCC(=O)O)NC(=O)[C@@H]2C[C@@H](O)CN2C(=O)[C@H](Cc2c[nH]c3ccc(Cl)cc23)NC(=O)[C@H](Cc2c[nH]c3ccccc23)NC(=O)[C@H](CC(=O)O)NC(C)=O)CSCc2cccc(n2)CSC[C@@H](C(N)=O)NC1=O [GIP-230, Ac-Asp-Trp-5Clw-Hyp-Glu-leu-[Cys(2Lut)-Thp-Arg-Ile-Cys]-NH2] (Ac-DW[Trp(5-Cl)][Hyp]E[dL]C[Thp]RIC-NH2; linker 7-11 via Pyridine(2,6-diCH2)) | < 10 nM
6 | CC[C@H](C)[C@@H]1NC(=O)[C@H](CCC(=O)O)NC(=O)C2(CCOCC2)NC(=O)[C@@H](NC(=O)[C@@H](CC(C)C)NC(=O)[C@H](CCC(=O)O)NC(=O)[C@@H]2C[C@@H](O)CN2C(=O)[C@H](Cc2c[nH]c3ccc(Cl)cc23)NC(=O)[C@H](Cc2c[nH]c3ccccc23)NC(=O)[C@H](CC(=O)O)NC(C)=O)CSCc2cccc(n2)CSC[C@@H](C(N)=O)NC1=O [GIP-231, Ac-Asp-Trp-5Clw-Hyp-Glu-leu-[Cys(2Lut)-Thp-Glu-Ile-Cys]-NH2] (Ac-DW[Trp(5-Cl)][Hyp]E[dL]C[Thp]EIC-NH2; linker 7-11 via Pyridine(2,6-diCH2)) | < 10 nM
7 | CC[C@H](C)[C@@H]1NC(=O)[C@H](Cc2ccccc2)NC(=O)C2(CCOCC2)NC(=O)[C@@H](NC(=O)[C@@H](CC(C)C)NC(=O)[C@H](CCC(=O)O)NC(=O)[C@@H]2C[C@@H](O)CN2C(=O)[C@H](Cc2c[nH]c3ccc(Cl)cc23)NC(=O)[C@H](Cc2c[nH]c3ccccc23)NC(=O)[C@H](CC(=O)O)NC(C)=O)CSCc2cccc(n2)CSC[C@@H](C(N)=O)NC1=O [GIP-232, Ac-Asp-Trp-5Clw-Hyp-Glu-leu-[Cys(2Lut)-Thp-Phe-Ile-Cys]-NH2] (Ac-DW[Trp(5-Cl)][Hyp]E[dL]C[Thp]FIC-NH2; linker 7-11 via Pyridine(2,6-diCH2)) | < 10 nM
8 | CC[C@H](C)[C@@H]1NC(=O)[C@H](Cc2c[nH]c3ccccc23)NC(=O)C2(CCOCC2)NC(=O)[C@@H](NC(=O)[C@@H](CC(C)C)NC(=O)[C@H](CCC(=O)O)NC(=O)[C@@H]2C[C@@H](O)CN2C(=O)[C@H](Cc2c[nH]c3ccc(Cl)cc23)NC(=O)[C@H](Cc2c[nH]c3ccccc23)NC(=O)[C@H](CC(=O)O)NC(C)=O)CSCc2cccc(n2)CSC[C@@H](C(N)=O)NC1=O [GIP-233, Ac-Asp-Trp-5Clw-Hyp-Glu-leu-[Cys(2Lut)-Thp-Trp-Ile-Cys]-NH2] (Ac-DW[Trp(5-Cl)][Hyp]E[dL]C[Thp]WIC-NH2; linker 7-11 via Pyridine(2,6-diCH2)) | < 10 nM

More lines, now with the values ahead:

Row | IC50 | Structure (SMILES)
9 | < 10 nM | CC[C@H](C)[C@@H]1NC(=O)[C@H](CC(C)C)NC(=O)[C@H](Cc2c[nH]c3ccccc23)NC(=O)[C@@H](NC(=O)[C@@H](CC(C)C)NC(=O)[C@H](CCC(=O)O)NC(=O)[C@@H]2C[C@@H](O)CN2C(=O)[C@H](Cc2c[nH]c3ccc(Cl)cc23)NC(=O)[C@H](Cc2c[nH]c3ccccc23)NC(=O)[C@H](CC(=O)O)NC(C)=O)CSCc2cccc(n2)CSC[C@@H](C(N)=O)NC1=O [GIP-234, Ac-Asp-Trp-5Clw-Hyp-Glu-leu-[Cys(2Lut)-Trp-Leu-Ile-Cys]-NH2] (Ac-DW[Trp(5-Cl)][Hyp]E[dL]CWLIC-NH2; linker 7-11 via Pyridine(2,6-diCH2))
10 | < 10 nM | CC[C@H](C)[C@@H]1NC(=O)[C@H](CC(C)C)NC(=O)[C@H](CCC(=O)O)NC(=O)[C@@H](NC(=O)[C@@H](CC(C)C)NC(=O)[C@H](CCC(=O)O)NC(=O)[C@@H]2C[C@@H](O)CN2C(=O)[C@H](Cc2c[nH]c3ccc(Cl)cc23)NC(=O)[C@H](Cc2c[nH]c3ccccc23)NC(=O)[C@H](CC(=O)O)NC(C)=O)CSCc2cccc(n2)CSC[C@@H](C(N)=O)NC1=O [GIP-235, Ac-Asp-Trp-5Clw-Hyp-Glu-leu-[Cys(2Lut)-Glu-Leu-Ile-Cys]-NH2] (Ac-DW[Trp(5-Cl)][Hyp]E[dL]CELIC-NH2; linker 7-11 via Pyridine(2,6-diCH2))
11 | < 10 nM | CC[C@H](C)[C@@H]1NC(=O)[C@H](CO)NC(=O)C2(CCOCC2)NC(=O)[C@@H](NC(=O)[C@@H](CC(C)C)NC(=O)[C@H](CCC(=O)O)NC(=O)[C@@H]2C[C@@H](O)CN2C(=O)[C@H](Cc2c[nH]c3ccc(Cl)cc23)NC(=O)[C@H](Cc2c[nH]c3ccccc23)NC(=O)[C@H](CC(=O)O)NC(C)=O)CSCc2cccc(n2)CSC[C@@H](C(N)=O)NC1=O [GIP-236, Ac-Asp-Trp-5Clw-Hyp-Glu-leu-[Cys(2Lut)-Thp-Ser-Ile-Cys]-NH2] (Ac-DW[Trp(5-Cl)][Hyp]E[dL]C[Thp]SIC-NH2; linker 7-11 via Pyridine(2,6-diCH2))
12 | < 10 nM | CC(=O)N[C@@H](CC(=O)O)C(=O)N[C@@H](Cc1c[nH]c2ccccc12)C(=O)N[C@@H](Cc1c[nH]c2ccc(Cl)cc12)C(=O)N1C[C@H](O)C[C@H]1C(=O)N[C@@H](CCC(=O)O)C(=O)N[C@H](CC(C)C)C(=O)N[C@H]1CSCc2cccc(n2)CSC[C@@H](C(N)=O)NC(=O)[C@H](CC(C)C)NC(=O)[C@H](CC(C)C)NC(=O)C2(CCOCC2)NC1=O [GIP-237, Ac-Asp-Trp-5Clw-Hyp-Glu-leu-[Cys(2Lut)-Thp-Leu-Leu-Cys]-NH2] (Ac-DW[Trp(5-Cl)][Hyp]E[dL]C[Thp]LLC-NH2; linker 7-11 via Pyridine(2,6-diCH2))
13 | < 10 nM | CC(=O)N[C@@H](CC(=O)O)C(=O)N[C@@H](Cc1c[nH]c2ccccc12)C(=O)N[C@@H](Cc1c[nH]c2ccc(Cl)cc12)C(=O)N1C[C@H](O)C[C@H]1C(=O)N[C@@H](CCC(=O)O)C(=O)N[C@H](CC(C)C)C(=O)N[C@H]1CSCc2cccc(n2)CSC[C@@H](C(N)=O)NC(=O)[C@H](C(C)(C)C)NC(=O)[C@H](CC(C)C)NC(=O)C2(CCOCC2)NC1=O [GIP-238, Ac-Asp-Trp-5Clw-Hyp-Glu-leu-[Cys(2Lut)-Thp-Leu-Tle-Cys]-NH2] (Ac-DW[Trp(5-Cl)][Hyp]E[dL]C[Thp]L[Tle]C-NH2; linker 7-11 via Pyridine(2,6-diCH2))
14 | < 10 nM | CC[C@H](C)[C@@H]1NC(=O)[C@H](CC(C)C)NC(=O)C2(CCOCC2)NC(=O)[C@@H](NC(=O)[C@@H](CC(C)C)NC(=O)[C@H](CCC(=O)O)NC(=O)[C@@H]2C[C@@H](N)CN2C(=O)[C@H](Cc2c[nH]c3ccc(Cl)cc23)NC(=O)[C@H](Cc2c[nH]c3ccccc23)NC(=O)[C@H](CC(=O)O)NC(C)=O)CSCc2cccc(n2)CSC[C@@H](C(N)=O)NC1=O [GIP-239, Ac-Asp-Trp-5Clw-Tap-Glu-leu-[Cys(2Lut)-Thp-Leu-Ile-Cys]-NH2] (Ac-DW[Trp(5-Cl)][Pro(4R-NH2)]E[dL]C[Thp]LIC-NH2; linker 7-11 via Pyridine(2,6-diCH2))
